These are literature values, as cited in patent US8435963B2, “Weight loss compositions and uses thereof” (priority 2008, dated 2013).

SMILES strings stand for the structures. Counter-ions that a name gives are not always drawn. Like-named read-outs stand apart in the source and are kept apart here.

With `COC(=O)[C@@H]1[C@H]2C[C@H]3c4[nH]c5cc(O)ccc5c4CCN3C[C@@H]2CC[C@@H]1O` [11-Hydroxy yohimbine], the half-life (human, in vivo) is 8 to 11 h.

As to `COC(=O)[C@@H]1[C@H]2C[C@H]3c4[nH]c5ccccc5c4CCN3C[C@@H]2CC[C@@H]1O` [yohimbine HCl, 17α-hydroxy-yohimban-16α-carboxylic acid methyl ester], the half-life (humans) is 2.5 h.

In general, half-life refers to the time needed for the level to fall by half in the phase considered.
